Assay results: patent publication US10010525B2, “Methods of inducing anesthesia” (The Regents of the University of California, priority 2012, dated 2018)

Assays:
[1] = molecular target: T1, NMDA (NR1/NR2A) receptors (Rattus norvegicus, UniProt P35439+Q00959); assay: NMDA receptor two-electrode voltage clamp in oocytes at saturated drug concentration; assay type: cell-based; conditions: for NMDA % Direct Effect: drug response without receptor agonist; for NMDA % Direct Effect / NMDA % Agonist Effect: percent of control agonist peak, mean ±SEM, 5-6 oocytes, saturated drug; for NMDA % Agonist Effect: drug with glutamate and glycine; for NMDA receptor modulation (in words): saturating aqueous concentration; for NMDA Drug Response: drug+agonist versus control agonist peak; for direct effect on NMDA receptors (in words): without glutamate and glycine agonist
T1 construct: expressed in transfected cells; host or cells: Xenopus laevis oocytes (RNA injection, 1:1)
Description: (§1) GABAA (α1β2γ2s) or NMDA (NR1/NR2A) receptors were expressed in oocytes and studied using standard two-electrode voltage clamp techniques. Hydrocarbons from 14 different organic functional groups were studied at saturated concentrations, and compounds within each group differed only by the carbon number at the ω-position or within a saturated ring. An effect on GABAA or NMDA receptors was defined as a 10% or greater reversible current change from baseline that was statistically different from zero.
(§2) An ovary from tricaine-anesthetized Xenopus laevis frogs was surgically removed using a protocol approved by the Institutional Animal Care and Use Committee at the University of California, Davis. Following manual disruption of the ovarian lobule septae, the ovary was incubated in 0.2% Type I collagenase (Worthington Biochemical, Lakewood, N.J.) to defolliculate oocytes which were washed and stored in fresh and filtered modified Barth's solution composed of 88 mM NaCl, 1 mM KCl, 2.4 mM NaHCO3, 20 mM HEPES, 0.82 mM MgSO4, 0.33 mM Ca(NO3)2, 0.41 mM CaCl2, 5 mM sodium pyruvate, gentamycin, penicillin, streptomycin, and corrected to pH=7.4. All salts and antibiotics were A.C.S. grade (Fisher Scientific, Pittsburgh, Pa.).
(§3) Clones used were provided as a gift from Dr. R. A. Harris (University of Texas, Austin) and were sequenced and compared to references in the National Center for Biotechnology Information database to confirm the identity of each gene. GABAA receptors were expressed using clones for the human GABAA α1 and the rat GABAA β2 and γ2s subunits in pCIS-II vectors. […] In separate oocytes, glutamate receptors were expressed using rat NMDA NR1 clones in a pCDNA3 vector and rat NMDA NR2A clones in a Bluescript vector. RNA encoding each subunit was prepared using a commercial transcription kit (T7 mMessage mMachine, Ambion, Austin, Tex.) was mixed in a 1:1 ratio, and 1-10 ng of total RNA was injected into oocytes and studied 1-2 days later.
Briefly, baseline perfusion solutions were the same as for GABAA with the substitution of equimolar BaCl2 for calcium salts and the addition of 0.1 mM EGTA; this constituted barium frog Ringer's solution (BaFR). Agonist solutions for NMDA studies also contained 0.1 mM glutamate (E) and 0.01 mM glycine (G) to constitute a BaFREG solution.
The syringe pump and perfusion chamber apparatus as well as the clamp holding potential and baseline-agonist exposure protocols were identical to that described for the GABAA studies. The same test compounds, concentrations, and preparative methods were used in NMDA voltage clamp studies as in the GABAA voltage clamp studies (Table 2).
(§4) Modulating drug responses were calculated as the percent of the control (baseline) peak as follows: 100·ID/IB, where ID and IB were the peak currents measured during agonist+drug and agonist baseline perfusions, respectively. When present, direct receptor activation by a drug was similarly calculated as a percent of the agonist response. […] A lack of receptor response (cut-off) was defined as a<10% change from baseline current that was statistically indistinguishable from zero using a two-tailed Student t-test.

[2] = molecular target: T2, GABAA (α1β2γ2s) receptors (UniProt P14867+P18508+P63138); assay: GABAA receptor two-electrode voltage clamp in oocytes at saturated drug concentration; assay type: cell-based, human α1, rat β2 and γ2s; conditions: for GABAA % Direct Effect: drug response without receptor agonist; for GABAA % Direct Effect / GABAA % Agonist Effect: percent of control agonist peak, mean ±SEM, 5-6 oocytes, saturated drug; for GABAA % Agonist Effect: drug with γ-aminobutyric acid; for GABAA Drug Response: drug+agonist versus control agonist peak
T2 construct: expressed in transfected cells; host or cells: Xenopus laevis oocytes (intranuclear plasmid injection, α1:β2:γ2 = 1:1:10)
Description: as §1, §2, §3
Oocytes were studied in a 250 μL linear-flow perfusion chamber with solutions administered by syringe pump at 1.5 ml/min with gastight glass syringes and Teflon tubing. Oocyte GABAA currents were studied using standard two-electrode voltage clamping techniques at a holding potential of […] using a 250 μL channel linear-flow perfusion chamber with solutions administered by syringe pump at 1.5 mL/min.
After FR perfusion for 5 min, oocytes were exposed to 30 sec FR-GABA followed by another 5 min FR washout; this was repeated until stable GABAA-elicited peaks were obtained. Next, FR containing a saturated solution of the study drug (Table 2)—or for gaseous study compounds a vapor pressure equal to 90% of barometric pressure with balance oxygen—was used to perfuse the oocyte chamber for 2 min followed by perfusion with a FR-GABA solution containing the identical drug concentration for 30 sec.
as §4

T2 sequence (P14867 28-456): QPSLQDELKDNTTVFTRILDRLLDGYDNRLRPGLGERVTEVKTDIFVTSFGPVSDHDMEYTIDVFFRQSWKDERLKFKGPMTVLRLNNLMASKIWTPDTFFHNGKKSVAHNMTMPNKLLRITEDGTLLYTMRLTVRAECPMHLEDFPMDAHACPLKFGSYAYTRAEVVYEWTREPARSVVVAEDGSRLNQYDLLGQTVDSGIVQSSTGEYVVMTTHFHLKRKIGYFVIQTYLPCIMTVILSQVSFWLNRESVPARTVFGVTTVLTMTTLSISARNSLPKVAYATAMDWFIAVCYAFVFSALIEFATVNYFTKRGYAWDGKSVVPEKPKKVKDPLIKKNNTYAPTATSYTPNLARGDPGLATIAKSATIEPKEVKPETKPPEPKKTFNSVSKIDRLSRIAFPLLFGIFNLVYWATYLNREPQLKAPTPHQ
T2 sequence (P63138 25-474 limits assumed): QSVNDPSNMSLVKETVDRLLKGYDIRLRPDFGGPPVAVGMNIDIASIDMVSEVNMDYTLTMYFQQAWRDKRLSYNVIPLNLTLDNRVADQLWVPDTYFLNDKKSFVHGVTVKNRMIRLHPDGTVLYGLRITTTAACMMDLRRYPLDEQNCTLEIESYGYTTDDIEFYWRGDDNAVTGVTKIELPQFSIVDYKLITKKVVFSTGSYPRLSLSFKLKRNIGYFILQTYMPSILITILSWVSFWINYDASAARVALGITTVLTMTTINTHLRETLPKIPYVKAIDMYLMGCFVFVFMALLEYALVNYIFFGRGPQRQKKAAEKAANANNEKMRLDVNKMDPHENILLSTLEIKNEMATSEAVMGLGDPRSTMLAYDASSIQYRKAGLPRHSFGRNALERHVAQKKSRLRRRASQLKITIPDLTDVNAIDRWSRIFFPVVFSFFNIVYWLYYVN
T2 sequence (P18508 39-466): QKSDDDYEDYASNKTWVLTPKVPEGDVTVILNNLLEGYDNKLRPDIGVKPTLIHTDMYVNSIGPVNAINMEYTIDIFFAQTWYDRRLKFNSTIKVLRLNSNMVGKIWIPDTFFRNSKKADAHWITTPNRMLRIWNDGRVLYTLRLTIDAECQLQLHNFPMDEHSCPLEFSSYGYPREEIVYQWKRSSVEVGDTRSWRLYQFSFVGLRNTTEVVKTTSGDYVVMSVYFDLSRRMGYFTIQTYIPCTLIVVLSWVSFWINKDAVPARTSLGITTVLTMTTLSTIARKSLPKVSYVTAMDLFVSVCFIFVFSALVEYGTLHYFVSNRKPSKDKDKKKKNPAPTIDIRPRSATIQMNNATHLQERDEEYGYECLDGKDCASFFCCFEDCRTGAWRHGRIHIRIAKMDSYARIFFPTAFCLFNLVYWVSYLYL
T1 sequence (Q00959 23-1464, other chains not shown): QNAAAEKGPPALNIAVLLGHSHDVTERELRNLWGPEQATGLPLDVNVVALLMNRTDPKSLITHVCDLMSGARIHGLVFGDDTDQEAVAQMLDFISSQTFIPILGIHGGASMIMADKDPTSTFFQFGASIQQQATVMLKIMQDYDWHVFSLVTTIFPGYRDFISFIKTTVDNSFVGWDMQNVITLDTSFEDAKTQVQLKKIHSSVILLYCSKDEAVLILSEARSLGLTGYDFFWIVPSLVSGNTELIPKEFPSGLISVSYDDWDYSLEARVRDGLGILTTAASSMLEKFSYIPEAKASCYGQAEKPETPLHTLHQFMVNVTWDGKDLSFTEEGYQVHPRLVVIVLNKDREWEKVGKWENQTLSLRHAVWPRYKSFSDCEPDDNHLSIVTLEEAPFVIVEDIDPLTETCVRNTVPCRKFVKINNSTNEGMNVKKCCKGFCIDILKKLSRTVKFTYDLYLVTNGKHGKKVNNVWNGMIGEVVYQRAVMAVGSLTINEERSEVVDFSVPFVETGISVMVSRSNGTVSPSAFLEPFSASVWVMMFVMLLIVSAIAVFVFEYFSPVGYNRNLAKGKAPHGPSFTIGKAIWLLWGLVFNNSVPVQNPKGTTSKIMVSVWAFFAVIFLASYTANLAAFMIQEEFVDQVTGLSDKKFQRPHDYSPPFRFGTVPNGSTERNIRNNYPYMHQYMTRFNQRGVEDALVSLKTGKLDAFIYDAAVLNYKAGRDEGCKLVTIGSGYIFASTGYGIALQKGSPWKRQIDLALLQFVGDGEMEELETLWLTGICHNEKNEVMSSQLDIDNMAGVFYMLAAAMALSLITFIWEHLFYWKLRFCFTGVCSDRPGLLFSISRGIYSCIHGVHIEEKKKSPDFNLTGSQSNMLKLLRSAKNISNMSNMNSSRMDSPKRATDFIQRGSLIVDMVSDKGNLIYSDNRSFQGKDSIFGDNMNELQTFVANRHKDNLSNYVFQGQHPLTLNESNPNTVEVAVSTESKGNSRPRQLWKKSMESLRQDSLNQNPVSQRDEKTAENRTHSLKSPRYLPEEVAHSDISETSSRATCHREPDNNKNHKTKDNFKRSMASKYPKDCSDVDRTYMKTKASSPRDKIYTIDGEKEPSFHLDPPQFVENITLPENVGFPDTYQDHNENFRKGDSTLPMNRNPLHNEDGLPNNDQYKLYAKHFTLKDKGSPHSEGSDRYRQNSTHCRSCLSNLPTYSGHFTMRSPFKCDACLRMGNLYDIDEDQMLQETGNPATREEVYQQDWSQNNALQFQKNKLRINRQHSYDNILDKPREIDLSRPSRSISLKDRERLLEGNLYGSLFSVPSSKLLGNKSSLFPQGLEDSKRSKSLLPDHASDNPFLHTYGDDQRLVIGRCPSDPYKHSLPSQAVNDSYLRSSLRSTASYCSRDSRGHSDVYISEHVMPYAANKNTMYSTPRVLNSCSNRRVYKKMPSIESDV

| Compound | NMDA % Direct Effect [1] | NMDA % Agonist Effect [1] [%] | GABAA % Direct Effect [2] | GABAA % Agonist Effect [2] [%] | GABAA Drug Response [2] | NMDA receptor modulation (in words) [1] | GABAA receptor modulation (in words) ([2]; saturating aqueous concentration) | NMDA Drug Response [1] | NMDA receptor current inhibition ([1]; hydrocarbons prior to the cut-off, saturated) [%] | direct effect on NMDA receptors (in words) [1] |
| --- | --- | --- | --- | --- | --- | --- | --- | --- | --- | --- |
| C#CCCCC [1-hexyne] | none | 41 ± 6 | 5 ± 2% | 418 ± 21 | + (potentiation (+) for drug+agonist responses greater than the control agonist peak) |  |  |  |  |  |
| OCC(F)(F)C(F)(F)C(F)(F)C(F)(C(F)(F)F)C(F)(F)F [1-Hexanol, 2,2,3,3,4,4,5,6,6,6-decafluoro-5-(trifluoromethyl)-] |  |  |  |  |  | weak NMDA receptor antagonist | GABA-A receptor agonist |  |  |  |
| CCCCCCS [1-hexanethiol] | none | 102 ± 3 | 8 ± 2% | 290 ± 41 | + (potentiation (+) for drug+agonist responses greater than the control agonist peak) | did not |  | 0 (no response (0) for drug+agonist responses that differ by <10% from the control agonist peak) |  |  |
| CCCCCCC(=O)OCC [ethyl heptanoate] | none | 78 ± 3 | none | 370 ± 34 | + (potentiation (+) for drug+agonist responses greater than the control agonist peak) |  |  |  |  |  |
| CCc1cccc(CC)c1 [1,3-diethylbenzene] | none | 101 ± 2 | none | 305 ± 24 | + (potentiation (+) for drug+agonist responses greater than the control agonist peak) |  |  | 0 (no response (0) for drug+agonist responses that differ by <10% from the control agonist peak) |  |  |
| CCCCCCCCC=O [nonanal] | none | 104 ± 2 | none | 219 ± 29 | + (potentiation (+) for drug+agonist responses greater than the control agonist peak) |  |  | 0 (no response (0) for drug+agonist responses that differ by <10% from the control agonist peak) |  |  |
| CCCCCF [1-fluoropentane] | none | 76 ± 2 | none | 539 ± 35 | + (potentiation (+) for drug+agonist responses greater than the control agonist peak) |  |  |  |  |  |
| Cc1cccc(C)c1 [1,3-dimethylbenzene] | none | 58 ± 3 | none | 366 ± 21 | + (potentiation (+) for drug+agonist responses greater than the control agonist peak) |  |  |  |  |  |
| CCCCCCCCCCCO [1-undecanol] | none | 101 ± 2 | none | 181 ± 13 | + (potentiation (+) for drug+agonist responses greater than the control agonist peak) |  |  | 0 (no response (0) for drug+agonist responses that differ by <10% from the control agonist peak) |  |  |
| CCCCCS [1-pentanethiol] | none | 85 ± 4 | 22 ± 8% | 466 ± 57 | + (potentiation (+) for drug+agonist responses greater than the control agonist peak) | inhibited NMDA receptors |  |  | 15 |  |
| CCCCCOCCCCC [dipentylether] | none | 97 ± 2 | none | 211 ± 9 | + (potentiation (+) for drug+agonist responses greater than the control agonist peak) |  |  | 0 (no response (0) for drug+agonist responses that differ by <10% from the control agonist peak) |  |  |
| CCCCCCCC(=O)OCC [ethyl octanoate] | none | 90 ± 1 | none | 285 ± 18 | + (potentiation (+) for drug+agonist responses greater than the control agonist peak) |  |  |  |  |  |
| CCCCCCCCCCO [1-decanol] | none | 70 ± 3 | none | 386 ± 20 | + (potentiation (+) for drug+agonist responses greater than the control agonist peak) |  |  |  |  |  |
| CCCCCCCCC(C)=O [2-decanone] | none | 81 ± 1 | none | 476 ± 52 | + (potentiation (+) for drug+agonist responses greater than the control agonist peak) |  |  |  |  |  |
| C=CCCCC [1-hexene] | none | 97 ± 0 | none | 132 ± 2 | + (potentiation (+) for drug+agonist responses greater than the control agonist peak) |  |  | 0 (no response (0) for drug+agonist responses that differ by <10% from the control agonist peak) |  |  |
| C#CCCCCC [1-heptyne] | none | 68 ± 10 | none | 172 ± 8 | + (potentiation (+) for drug+agonist responses greater than the control agonist peak) |  |  |  |  |  |
| CCCCCCSCC [1-(ethylthio)-hexane] | none | 87 ± 1 | none | 350 ± 57 | + (potentiation (+) for drug+agonist responses greater than the control agonist peak) |  |  |  |  |  |
| N-methylpiperadine |  |  |  |  |  |  |  |  |  | direct activation of NMDA receptors |
| CN1CCOCC1 [4-methylmorpholine] |  |  |  |  |  |  |  |  |  | direct activation of NMDA receptors |
